Tests used:
[1] = test system: DMT1-deficient Caco-2 cells; test: shDMT1-Caco2 55Fe transport assay; format: cell-based; conditions: Caco-2
Text: Assay 2: shDMT1-Caco2 ^55Fe Transport Assay to Assess Ligand Ability in Transporting Fe (III)
Cells: DMT1-deficient Caco-2 cells (alias: “shDMT1,” or “4A” cells) were from Grillo et al. Science, 2017, and were cryopreserved in liquid nitrogen prior to use.
Reagents and supplies: ^55FeCl3 was obtained from PerkinElmer (Boston, MA). Iron(III) chloride (FeCl3) hexahydrate was obtained from Sigma. Dulbecco's Modified Eagle Medium (DMEM), fetal bovine serum (FBS), L-glutamine, MEM nonessential amino acids, penicillin-streptomycin, G418, formic acid, methanol, high-purity water, ammonium formate, dimethyl sulfoxide (DMSO) were purchased from Fisher Scientific. Propranolol, atenolol and carbutamide were obtained from Sigma-Aldrich Chemical Company (St Louis, MO). Scintillation cocktail was obtained from Research Product International Co. (Mount Prospect, IL). Stericup filter system (PES membrane, 0.22 um pore size) was purchased from Fisher Scientific. Coming item #3378 24-well transwell insert plates. Test articles: known compounds hinokitiol and deferiprone were purchased from Sigma. They are tested side by side with the small molecule ligands disclosed in this application. DMSO stocks (10 mM, which is 1,000× of the 10 μM dose level) of hinokitiol or test articles were prepared. A stock solution of 25 mM deferiprone in DMSO was prepared. The DMSO stock solutions were stored at −20° C. or below when not in use.
The growth medium was prepared according to the following table
Apical media (serum free DMEM, 10 mM MES, pH 6.5) was prepared. Apical master mix media was prepared fresh with the addition of 200 nM ^55Fe before each experiment. For the negative control propranolol and atenolol wells, 200 nM of non-radioactive iron was used.
The basolateral media was serum-free DMEM, 10 mM HEPES, 2% bovine serum albumin (BSA), pH 7.4.
For each experiment, cells were seeded into the 24-well transwell plates (0.5 mL of 50,000 cells/mL) with growth media. The basolateral companion plate was loaded with 1 mL of growth media. After 12-24 hr, both the apical and basolateral chamber were replaced with growth media. The apical media was changed 3× per week for 21-28 days, including a media change exactly 48 hr before the assay date.
On the assay day, the TEER values were measured and the average TEER values was obtained. Individual wells with TEER vaule >35% lower than the average of all wells were excluded. For the qualified wells, the apical layer (twice) and basolaterial (once) chambers were washed with PBS. The basolateral companion plate was then filled with 1 mL of basolateral media. Via addition down the side-wall of the apical well, 300 μL per well of the apical assay master mix, with the indicated dose level of test article, was added. Each dose was tested in triplicate. The plates were incubated (5% CO2 and 90% humidity at 37° C.) for the indicated timepoints. At each indicated timepoint, the basolateral supernatant was gently mixed via pipetting, and 200 μL of the basolateral supernatant was transferred to scintillation vials. To each scintillation counting vial, 5 mL of scintillation cocktail fluid was added. For each scintillation vial, the radioactivity (CPM) was determined with liquid scintillation counter LS6500. The counting time per vial was 5 min.
All raw CPM values are divided by the average value of blank DMSO solution to give a fold of change above the DMSO value. The mean and standard deviation of each compound at each concentration level and at each time point measured was calculated to give the fold change (fc) value.
For rank order compounds, the fc value of a ligand at 4 h time point is further divided by the fold change (fc) value of hinokitiol (a positive control compound) at an equimolar concentration to arrive at the FC (normalized fold of change) value. Data reported in Tables 1 and 2 is 4 hr time point FC=fc-ligand @ 3 uM/fc-hino @ 3 uM, and FC hino=1.

[2] = Ligand facilitated Fe(III) efflux from liposomes; conditions: 10 uM ligand concentration; Table 1
Procedure: Assay 1: Ligand Facilitated Fe(III) Efflux from Liposomes Preparation of POPC (1-palmitoyl-2-oleoyl-sn-glycero-3-phosphocholine): Cholesterol Liposomes:
A 1M buffer solution of MES and Tris was prepared by dissolving 121.14 grams of Tris base and 213.25 grams of MES hydrate in 500 mL of MilliQ water and adjusted to pH7.0 using an […] HCl solution before bringing the total volume of the solution to 1 L. A 500 mM solution of FeCl3 was prepared by dissolving 0.811 grams of anhydrous FeCl3 in 10 mL of a 0.1M H2SO4 aqueous solution. Inside buffer is prepared in a 50 mL falcon tube, which was added with 25 mL of MilliQ water, 1.61 g of sodium citrate, 1.5 mL of the above FeCl3 solution, and 2.5 mL of the 1M MES/Tris HCl buffer (pH=7.0), and finally additional MilliQ H2O to bring to a 50 mL final volume.
Lipid solution is prepared by dissolving 206.9 mg of POPC (1-palmitoyl-2-oleoyl-sn-glycero-3-phosphocholine) and 8.6 mg of cholesterol in 10 mL of ethanol.
The lipids solution and the inside buffer solution are independently loaded into 10 mL luer lock syringes for loading into a virgin cartridge on a Precision Nanosystems NanoAssembler to prepare unilamaller liposomes with the following parameters: 7.5 mL total volume, 1.5:1 mixing ratio of inside buffer:lipids solution, 8 mL/min flow rate, ambient temperature, 0.35 mL start waste, and 0.05 mL of end waste. 7.5 mL of liposomes is harvested for purification on a 6-inch long, 1-inch diameter Sephadex G-50 column wetted in 600 mM sodium ascorbate and 50 mM MES/Tris HCl pH 7.0 buffer. This buffer also serves as the column running buffer. The crude liposome solution is carefully loaded with minimal volume of running buffer above the top of the Sphadex, allowed to enter the matrix, and the column is run with the continued addition of running buffer. The eluting liposomes, observed as a milky and turbid solution, are collected until free iron begins to elute (observed as a deep purple color) and the fractions are pooled for phosphorus quantitation.
Phosphorus content of eluted liposomes was determined by the process outlined below. 10 uL of liposome elution and a running buffer blank are added to a 5 mL glass vial containing 450 uL of a 8.9 M aqueous H2SO4 solution, the mixture is heated to 225° C. for 25 minutes in an aluminum heat block to hydrolyze POPC and cooled for 5 minutes. 200 ul of a 30% hydrogen peroxide aqueous solution is added to each vial and heated to 225° C. for 25 minutes. After cooling, the phosphorus content was determined using an Abcam Phosphate Assay kit, with buffer subtracted phosphorus levels determined against a standard curve of phosphate included in the kit. Liposomes were diluted to 1 mM phosphate in Running Buffer for use in assays after accounting for dilutions made during phospholipid digestion.
Determination of the rate at which a small molecule ligand liberates (transport) Ferric iron from liposomes is performed in clear bottom black 384-well plates on a Spectramax i3x set to read the absorbance at 562 nm in the kinetic mode every 60 seconds for 120 minutes. 1 uL of serially diluted DMSO stock solution of a small molecule ligand is added to wells in triplicate to give the final concentrations of 40, 20, 10, 5, 2.5, and 1.25 uM of the ligand at 80 μL final volume, followed by addition of 1 μL of 100 mM Ferrozine in water to give a final concentration of 1 mM ferrozine. 78 uL of liposomes diluted to 1 mM phosphorus in running buffer is added to wells as quickly as possible (using a digital repeater mulchannel pipette) with the kinetic read initiated as rapidly as possible after addition of liposomes to all wells. Typically, eight compounds at six concentrations are tested in triplicate simultaneously.
Upon completion of kinetic read, the data for individual reads is fitted to a single phase association regression with the equation Y=(Y0−YMax)^(−kX)+YMax, with Y being the 562 absorbance value and X being time in minutes. […]

| SMILES | Caco2 shDMT1 transport FC @ 3 μM, 4h [1] | Liposome Fe transport kefflux at 10 10 μM [2] |
| --- | --- | --- |
| O=c1cccc(-c2cncc(F)c2F)cc1O [Ex.2, 4-(4,5-difluoropyridin-3-yl)-2-hydroxycyclohepta-2,4,6-trien-1-one] | 0.01-0.5 | 0.1-5 |
| N#Cc1cncc(-c2cccc(=O)c(O)c2)c1 [Ex.4, 5-(6-hydroxy-5-oxocyclohepta-1,3,6-trien-1-yl)nicotinonitrile] | 0.01-0.5 | 0.1-5 |
| COc1cc(-c2cccc(=O)c(O)c2)c(F)cn1 [Ex.6, 4-(5-fluoro-2-methoxypyridin-4-yl)-2-hydroxycyclohepta-2,4,6-trien-1-one] | 0.01-0.5 | 7.5-10 |
| COc1cc(-c2cccc(=O)c(O)c2)ccn1 [Ex.8, 2-hydroxy-4-(2-methoxypyridin-4-yl)cyclohepta-2,4,6-trien-1-one] | 0.01-0.5 | 7.5-10 |
| Cc1cnccc1-c1cccc(=O)c(O)c1 [Ex.9, 2-hydroxy-4-(3-methylpyridin-4-yl)cyclohepta-2,4,6-trien-1-one] | 0.01-0.5 | 0.1-5 |
| COc1cncc(-c2cccc(=O)c(O)c2)c1 [Ex.10, 2-hydroxy-4-(5-methoxypyridin-3-yl)cyclohepta-2,4,6-trien-1-one] | 0.01-0.5 | 0.1-5 |
| O=c1cccc(-c2cccnc2)cc1O [Ex.11, 2-hydroxy-4-(pyridin-3-yl)cyclohepta-2,4,6-trien-1-one] | 0.01-0.5 | 0.1-5 |
| COc1cc(-c2cccc(=O)c(O)c2)cnc1OC [Ex.12, 4-(5,6-dimethoxypyridin-3-yl)-2-hydroxycyclohepta-2,4,6-trien-1-one] | 0.5-1 | 7.5-10 |
| O=c1ccc(-c2cncc(F)c2)ccc1O [Ex.15, 5-(5-fluoropyridin-3-yl)-2-hydroxycyclohepta-2,4,6-trien-1-one] | 0.01-0.5 | 5-7.5 |
| O=c1cccc(-c2cncc(Cl)c2)cc1O [Ex.17, 4-(5-chloropyridin-3-yl)-2-hydroxycyclohepta-2,4,6-trien-1-one] | 0.01-0.5 | 5-7.5 |
| Cc1ccc(-c2cccc(=O)c(O)c2)cn1 [Ex.18, 2-hydroxy-4-(6-methylpyridin-3-yl)cyclohepta-2,4,6-trien-1-one] | 0.01-0.5 | 0.1-5 |
| COc1ccc(-c2cccc(=O)c(O)c2)cn1 [Ex.19, 2-hydroxy-4-(6-methoxypyridin-3-yl)cyclohepta-2,4,6-trien-1-one] | 0.01-0.5 | 0.1-5 |
| O=c1ccccc(-c2cncc(F)c2)c1O [Ex.24, 2-(5-fluoropyridin-3-yl)-7-hydroxycyclohepta-2,4,6-trien-1-one] | 0.01-0.5 | 7.5-10 |
| O=c1cccc(-c2cncnc2)cc1O [Ex.29, 2-hydroxy-4-(pyrimidin-5-yl)cyclohepta-2,4,6-trien-1-one] | 0.01-0.5 | 5-7.5 |
| COc1ncc(-c2cccc(=O)c(O)c2)cn1 [Ex.30, 2-hydroxy-4-(2-methoxypyrimidin-5-yl)cyclohepta-2,4,6-trien-1-one] | 0.01-0.5 | 0.1-5 |
| Cc1ncc(-c2ccc(O)c(=O)cc2)cn1 [Ex.33, 2-hydroxy-5-(2-methylpyrimidin-5-yl)cyclohepta-2,4,6-trien-1-one] | 0.01-0.5 | 0.1-5 |
| Cc1ncc(-c2ccccc(=O)c2O)cn1 [Ex.34, 2-hydroxy-3-(2-methylpyrimidin-5-yl)cyclohepta-2,4,6-trien-1-one] | 0.01-0.5 | 0.1-5 |
| Cc1ncc(-c2ccc(O)c(=O)cc2)c(C)n1.O=C(O)C(F)(F)F [Ex.35, 5-(2,4-dimethylpyrimidin-5-yl)-2-hydroxycyclohepta-2,4,6-trien-1-one] | 0.01-0.5 | 7.5-10 |
| Cc1ncc(-c2ccccc(=O)c2O)c(C)n1 [Ex.36, 3-(2,4-dimethylpyrimidin-5-yl)-2-hydroxycyclohepta-2,4,6-trien-1-one] | 0.01-0.5 | 5-7.5 |
| COc1nccc(-c2ccc(O)c(=O)cc2)n1.O=C(O)C(F)(F)F [Ex.38, 2-hydroxy-5-(2-methoxypyrimidin-4-yl)cyclohepta-2,4,6-trien-1-one] | 0.01-0.5 | 0.1-5 |
| COc1nccc(-c2cccc(=O)c(O)c2)n1.O=C(O)C(F)(F)F [Ex.39, 2-hydroxy-4-(2-methoxypyrimidin-4-yl)cyclohepta-2,4,6-trien-1-one] | 0.01-0.5 | 0.1-5 |
